Test results taken from patent publication US20240245677A1, “SELECTED COMPOUNDS FOR TARGETED DEGRADATION OF BRD9” (C4 THERAPEUTICS, INC., priority 2021, published 2024).
Where two headings read alike, the source gives them in different places.

Target: T1, BRD9 (Homo sapiens, UniProt Q9H8M2)
T1 sequence (Q9H8M2 1-597): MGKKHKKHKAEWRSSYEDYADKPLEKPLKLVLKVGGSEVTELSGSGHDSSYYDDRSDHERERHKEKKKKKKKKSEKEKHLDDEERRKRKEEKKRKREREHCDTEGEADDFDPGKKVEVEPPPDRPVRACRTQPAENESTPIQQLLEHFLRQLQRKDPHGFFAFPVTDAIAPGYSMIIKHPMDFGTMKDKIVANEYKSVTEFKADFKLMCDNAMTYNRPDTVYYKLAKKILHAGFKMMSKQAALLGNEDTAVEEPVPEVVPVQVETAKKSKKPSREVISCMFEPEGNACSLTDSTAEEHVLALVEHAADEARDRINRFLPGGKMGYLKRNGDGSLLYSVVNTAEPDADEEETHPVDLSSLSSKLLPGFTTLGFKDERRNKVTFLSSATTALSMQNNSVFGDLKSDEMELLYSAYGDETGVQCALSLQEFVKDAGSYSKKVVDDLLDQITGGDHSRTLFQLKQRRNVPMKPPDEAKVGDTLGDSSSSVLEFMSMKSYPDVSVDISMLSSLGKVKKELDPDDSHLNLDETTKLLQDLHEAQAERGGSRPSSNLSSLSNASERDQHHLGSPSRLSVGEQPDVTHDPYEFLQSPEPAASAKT
Assay: BRD9 degradation in Yamato-SS cells (endogenous), Western blot
Format: cell-based
Details: percent BRD9 detected, read-out: Emax(%)
Method: The purpose of this study was to evaluate the detection of BRD9 in a human cell line and susceptibility to degradation by Compound 1.
Previously frozen YAMATO-SS human cells (provided by the RIKEN BRC through the National BioResource Project of the MEXT/AMED, Japan (cat #RCB3577)) were thawed. Upon thawing, the cells were transferred to a 15 mL conical tube containing 10 mL of warm RPMI-1640 medium (Catalog No. C2400500BT, Gibco, Grand Island, NY, USA) supplemented with 10% FBS (Catalog No. SV30087.03, Cytiva, Marlborough, MA, USA) and spun down for 5 minutes at 1200 rpm. An aliquot was diluted 2× with Trypan Blue solution 0.4% (Catalog No. 15250061, ThermoSischer Scientific, Waltham, MA, USA) and cell count was determined. […]
Samples were boiled for 5 minutes and placed on ice for 30 minutes. […] Supernatants were transferred to a new 2.0 mL microcentrifuge tube and total protein concentrations were measured using Pierce™ BCA Protein Assay Kit (Catalog No. 23225, ThermoFischer Scientific, Waltham, MA USA).
After total protein quantification, all samples were diluted to a fixed μg/μL of protein in 6× loading buffer (Catalog No. BP-111R, Boston Bioproducts, Inc., Milford, MA, USA) for a final concentration of 40 μg of total protein in 1× loading buffer per lane. […]

Q: What does the source list for `COc1cc(-c2cn(C)c(=O)c(C)c2C)cc(OC)c1CN1CC[C@H](N2CCN(c3ccc(N[C@H]4CCC(=O)NC4=O)cc3F)CC2)C(F)(F)C1` [Compound 1, (S)-3-((4-(4-((S)-1-(2,6-dimethoxy-4-(1,4,5-trimethyl-6-oxo-1,6-dihydropyridin-3-yl)benzyl)-3,3-difluoropiperidin-4-yl)piperazin-1-yl)-3-fluorophenyl)amino)-piperidine-2,6-dione]?
A: % BRD9 remaining (4 hr): 1.2%; % BRD9 remaining (24 hr): 3.4%
